From ChEMBL document CHEMBL4118087, “Inhibitors of CD73 May Provide a Treatment for Cancer and Autoimmune Diseases” (ACS Med Chem Lett, 2017)

Biological target: 5'-nucleotidase (Homo sapiens, UniProt P21589, T376A)
Test: Inhibition of human flag-tagged CD73 Thr376Ala mutant (1 to 552 residues) assessed as reduction in conversion of AMP to adenosine incubated for 10 mins followed by AMP addition measured after 30 mins by RapidFire mass spectrometric analysis

Sequence of 5'-nucleotidase (P21589 27-549 T376A limits assumed): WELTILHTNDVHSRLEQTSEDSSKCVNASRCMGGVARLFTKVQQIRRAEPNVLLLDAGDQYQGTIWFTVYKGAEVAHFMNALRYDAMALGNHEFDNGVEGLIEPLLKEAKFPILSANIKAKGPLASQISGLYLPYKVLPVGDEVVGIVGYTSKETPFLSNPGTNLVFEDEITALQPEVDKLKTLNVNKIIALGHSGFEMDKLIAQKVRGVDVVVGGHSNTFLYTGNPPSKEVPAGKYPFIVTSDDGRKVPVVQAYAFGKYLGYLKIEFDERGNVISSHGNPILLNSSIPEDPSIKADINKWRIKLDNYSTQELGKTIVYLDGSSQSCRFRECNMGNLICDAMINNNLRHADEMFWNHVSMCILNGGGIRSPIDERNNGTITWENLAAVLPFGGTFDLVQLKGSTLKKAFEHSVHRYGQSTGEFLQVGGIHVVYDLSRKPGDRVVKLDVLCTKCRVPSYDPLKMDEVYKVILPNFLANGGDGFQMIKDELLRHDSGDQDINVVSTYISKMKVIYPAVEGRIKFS

SMILES	IC50 [nM]
O=S1(=O)NC(Nc2cccc3[nH]ccc23)=Nc2c(O)cc(Cl)cc21	≤ 316
CN(C)C(=O)Cc1cccc(NC2=Nc3c(O)cc(Cl)cc3S(=O)(=O)N2)c1	3160
O=S1(=O)NC(Nc2cccc(O)c2)=Nc2c(O)cc(F)cc21	100
Cc1ccc(NC2=Nc3c(O)cc(Cl)cc3S(=O)(=O)N2)cc1	1000
O=S1(=O)N=C(Nc2cc(F)c3[nH]ccc3c2)Nc2c(O)cc(Cl)c(Br)c21	63.1
O=S1(=O)NC(Nc2cccc3[nH]ncc23)=Nc2c1cc(Cl)c(F)c2O	15.8
